US20170137824A1, “NEW TREATMENT AGAINST INFLUENZA VIRUS” (priority 2014, published 2017)
Residues, ends and D or L forms follow the SMILES beside them. *: point of attachment. Cbz = O=C(OCc1ccccc1)*

How the values were obtained:
X31 strain of IAV [1] = test: Uncoating after endocytosis and fusion at LEs (ammonium chloride block and washout, drugs added 60 min post-uptake); type: cell-based, Influenza A X31 virus strain (H3N2); settings: drug added 60 min post-uptake, kept during 60 min uncoating
X31 strain of IAV [2] = test: Acid-bypass uncoating assay (fusion at the plasma membrane); type: cell-based, Influenza A X31 virus strain (H3N2); settings: for block of uncoating by type II myosin inhibitors: after acid-bypass at the PM (context); for uncoating blocked/decreased by % following PM bypass: percent reduction of uncoating

For `CC(C)C[C@@H](C=O)NC(=O)[C@H](CC(C)C)NC(=O)[C@H](CC(C)C)NC(=O)OCc1ccccc1` [MG132] (Cbz-Leu-Leu-Leu-aldehyde), the “effect on uncoating when IAV fuses at the LEs” value (X31 strain of IAV [1]) was “no significant effect”.

`O=S(=O)(c1cccc2c(Cl)cccc12)N1CCCNCC1` [ML-9] was tested, and the “block of uncoating by type II myosin inhibitors” value (X31 strain of IAV [2]) was “more than half”.

In the case of `Cc1ccc2c(c1)C(=O)C1(O)CCN(c3ccccc3)C1=N2` (stereo not drawn) [blebbistatin], the “block of uncoating by type II myosin inhibitors” value (X31 strain of IAV [2]) is reported as “more than half”.

With `N#CC(=C(O)c1ccc(Cl)cc1Cl)c1nc2cc(Cl)ccc2c(=O)[nH]1` [ciliobrevin D] the “uncoating following acid-bypass at the PM, reduced to % of control” value (X31 strain of IAV [2]; remaining uncoating relative to control, siRNA experiments in A549 cells) was 62%.

`C=C1[C@@H](C)[C@H]2[C@H](Cc3ccccc3)NC(=O)[C@]23[C@H](OC(C)=O)/C=C/[C@@](C)(O)C(=O)[C@@H](C)C/C=C/[C@H]3[C@@H]1O` [cytochalasin D] was tested, and the “uncoating blocked/decreased by % following PM bypass” value (X31 strain of IAV [2]) was 83%.

`CC(Nc1nc(N2CCCC2)nc2ccccc12)c1ccccc1` (stereo not drawn) [importazole] was tested, and the “effect on uncoating when IAV fuses at the LEs” value (X31 strain of IAV [1]) was “no significant effect”.

With `COC(=O)Nc1nc2ccc(C(=O)c3cccs3)cc2[nH]1` [nocodazole] the “uncoating blocked/decreased by % following PM bypass” value (X31 strain of IAV [2]) was 35%.

B1: HDAC6 (Dbm), mouse HDAC6 without the dynein-binding domain (del437-481), expressed in rescued HDAC6 KO MEFs (protein)
chain: MTSTGQDSSTRQRKSRHNPQSPLQESSATLKRGGKKCAVPHSSPNLAEVKKKGKMKKLSQPAEEDLVVGLQGLDLNPETRVPVGTGLVFDEQLNDFHCLWDDSFPESPERLHAIREQLILEGLLGRCVSFQARFAEKEELMLVHSLEYIDLMETTQYMNEGELRVLAETYDSVYLHPNSYSCACLATGSVLRLVDALMGAEIRNGMAVIRPPGHHAQHNLMDGYCMFNHLAVAARYAQKKHRIQRVLIVDWDVHHGQGTQFIFDQDPSVLYFSIHRYEHGRFWPHLKASNWSTIGFGQGQGYTINVPWNQTGMRDADYIAAFLHILLPVASEFQPQLVLVAAGFDALHGDPKGEMAATPAGFAHLTHLLMGLAGGKLILSLEGGYNLRALAKGVSASLHTLLGDPCPMLESCVVPCASAQTSIYCTLEALEPFWEVLVYDEKMMSHCNLWDNHHPETPQRILRIMCHLEEVGLAARCLILPARPALDSELLTCHSAEYVEHLRTTEKMKTRDLHREGANFDSIYICPSTFACAKLATGAACRLVEAVLSGEVLNGIAVVRPPGHHAEPNAACGFCFFNSVAVAARHAQIIAGRALRILIVDWDVHHGNGTQHIFEDDPSVLYVSLHRYDRGTFFPMGDEGASSQVGRDAGIGFTVNVPWNGPRMGDADYLAAWHRLVLPIAYEFNPELVLISAGFDAAQGDPLGGCQVTPEGYAHLTHLLMGLAGGRIILILEGGYNLASISESMAACTHSLLGDPPPQLTLLRPPQSGALVSISEVIQVHRKYWRSLRLMKMEDKEECSSSRLVIKKLPPTASPVSAKEMTTPKGKVPEESVRKTIAALPGKESTLGQAKSKMAKAVLAQGQSSEQAAKGTTLDLATSKETVGGATTDLWASAAAPENFPNQTTSVEALGETEPTPPASHTNKQTTGASPLQGVTAQQSLQLGVLSTLELSREAEEAHDSEEGLLGEAAGGQDMNSLMLTQGFGDFNTQDVFYAVTPLSWCPHLMAVCPIPAAGLDVSQPCKTCGTVQENWVCLTCYQVYCSRYVNAHMVCHHEASEHPLVLSCVDLSTWCYVCQAYVHHEDLQDVKNAAHQNKFGEDMPHSH
In the case of B1, the “uncoating using PM bypass, relative to WT MEFs” value (dynein) is reported as “uncoating in the HDAC6 (Db^m) cells was reduced to 58%% of WT MEFs” and the “uncoating when the virus was allowed to fuse at LEs, compared to WT MEFs” value (dynein) is reported as “uncoating was reduced to 67% in HDAC6 (Db^m) cells compared to WT MEFs”.
